Ends that are not written are not given here. PEG = not defined here
Columns and labels:
Type in all cases: cell-based
[1] = system: human breast cancer cells (MDA-MB-231); experiment: scratch assay, migration of MDA-MB-231 cells; conditions: MDA-MB-231, 10 μM, 48 hours; control group 36.19 ± 5.15
Description: (§1) In the scratch assay, the cell migration rate was negatively correlated with the inhibitory effect of the drug component on tumor cell migration ability. The cell migration inhibition experiment was described as follows: tumor cells were cultured in vitro, cells in logarithmic growth phase were collected and seeded evenly in a 24-well plate at a density of 1-2×10^5 cells/well; the cells were cultured in a cell incubator until a monolayer was formed; a scratch tool was used to make a “-” (straight) scratch on the monolayer of cells; the cells were washed 1-3 times with PBS, and a medium (with 2% fetal bovine serum) containing specific test components was added to the culture. Experimental grouping: PBS control group; polypeptide or derivative thereof treatment group (N1-N54), 10 μM. Three independent parallel wells were set up in each group, and the cells were cultured continuously in a cell incubator for 48 hours. […] At least 3 representative images for each well were taken. ImageJ software was used to count the migration distance of the cells, and the cell migration rate was calculated as: cell migration rate (%)=(width of original scratch−width of current scratch)/width of original scratch×100.
This example was a scratch assay to evaluate the inhibitory effect of the polypeptide or derivative thereof (N1-N54) on the migration ability of human breast cancer cells (MDA-MB-231). The experimental method was as described in Example 2.

[2] = system: human lung cancer cells (95D); experiment: scratch assay, migration of 95D cells; conditions: 10 μM, 48 hours, control group 55.3 ± 3.19
Description: as §1
This example was a scratch assay to evaluate the inhibitory effect of the polypeptide or derivative thereof (N1-N54) on the migration ability of human lung cancer cells (95D). The experimental method was as described in Example 2.

[3] = system: human non-small cell lung cancer cells (A549); experiment: scratch assay, migration of A549 cells; conditions: A549, 10 μM, 48 hours; control group 75.31 ± 8.19
Description: as §1
This example was a scratch assay to evaluate the inhibitory effect of the polypeptide or derivative thereof (N1-N54) on the migration ability of human non-small cell lung cancer (A549). The experimental method was as described in Example 2.

[4] = system: human liver adenocarcinoma cells (SK-HEP-1); experiment: transwell migration assay, SK-HEP-1 cells; conditions: SK-HEP-1 transwell migration, 10 μM, 24 hours; control group 1 782 ± 108, control group 2 768 ± 86
Description: (§2) The Transwell chamber system was used in the transwell cell migration experiment. The chamber has an upper layer and a lower layer, which are separated by an artificial semipermeable membrane in the middle. Cells that have migrated through the semi-permeable membrane will attach to the lower surface of the semi-permeable membrane. The migration ability is evaluated by counting the number of cells on the lower surface of the semi-permeable membrane. The number of cells that have migrated is negatively correlated with the inhibitory effect of the drug on the migration ability of the tumor cells. Transwell migration assay was performed as follows: tumor cells were cultured in vitro, cells in logarithmic growth phase were collected, and cell suspension was prepared with fresh serum-free medium at a density of 2-3×10^5 cells/mL. Cells were inoculated, 100 μL/well cell suspension (serum-free medium) in the upper chamber and 600 μL/well complete culture medium in the lower chamber. After incubated in 37° C., 5% CO2 incubator for 4-5 hours, serum-free medium (100 μL/well) was added to the control group, and serum-free medium containing polypeptide or derivative thereof (N1-N54) was added to the upper chamber of the treatment group (100 μL/well), the final concentration of the peptide or derivative thereof in the upper chamber was 10 μM. The cells were incubated continuously for 24 hours, and then fixed with methanol and stained with crystal violet. Images were taken under a microscope and the number of migrated cells was counted with ImageJ.
This example was a transwell cell migration experiment to evaluate the inhibitory effect of the polypeptide or derivative thereof (N1-N54) on the migration ability of human liver adenocarcinoma cells (SK-HEP-1). The experimental method was as described in Example 3.

[5] = system: human pancreatic cancer cells (PANC-1); experiment: transwell migration assay, PANC-1 cells; conditions: PANC-1 transwell migration, 10 μM, 24 hours; control group 360 ± 60
Description: as §2
This example was a transwell cell migration experiment to evaluate the inhibitory effect of the polypeptide or derivative thereof (N1-N54) on the migration ability of human pancreatic cancer cells (PANC-1). The experimental method was as described in Example 3.

[6] = system: human prostate cancer cells (22RV1); experiment: scratch assay, migration of 22RV1 cells; conditions: 22RV1, 10 μM, 48 hours; control group 25.41 ± 5.01
Description: as §1
This example was a scratch assay to evaluate the inhibitory effect of the polypeptide or derivative thereof (N1-N54) on the migration ability of human prostate cancer cells (22RV1). The experimental method was as described in Example 2.

[7] = system: human colon cancer cells (HCT-116); experiment: scratch assay, migration of HCT-116 cells; conditions: HCT-116, 10 μM, 48 hours; control group 47.78 ± 6.07
Description: as §1
This example was a scratch assay to evaluate the inhibitory effect of the polypeptide or derivative thereof (N1-N54) on the migration ability of human colon cancer cells (HCT-116). The experimental method was as described in Example 2.

[8] = system: human thyroid cancer cells (FRO); experiment: scratch assay, migration of FRO cells; conditions: 10 μM, 48 hours, control group 60.34 ± 8.32
Description: as §1
This example was a scratch assay to evaluate the inhibitory effect of the polypeptide or derivative thereof (N1-N54) on the migration ability of human thyroid cancer cells (FRO). The experimental method was as described in Example 2.

[9] = system: human pancreatic cancer cells (PANC-1); experiment: scratch assay, migration of PANC-1 cells; conditions: PANC-1, 10 μM, 48 hours; control group 66.65 ± 3.37
Description: as §1
This example was a scratch assay to evaluate the inhibitory effect of the polypeptide or derivative thereof (N1-N54) on the migration ability of human pancreatic cancer cells (PANC-1). The experimental method was as described in Example 2.

[10] = system: human pharyngeal squamous-cell carcinoma cells (Fadu); experiment: scratch assay, migration of Fadu cells; conditions: 10 μM, 48 hours, control group 28.76 ± 4.08
Description: as §1
This example was a scratch assay to evaluate the inhibitory effect of the polypeptide or derivative thereof (N1-N54) on the migration ability of human pharyngeal squamous-cell carcinoma cells (Fadu). The experimental method was as described in Example 2.

[11] = system: human lung squamous carcinoma cells (NCI-H226); experiment: scratch assay, migration of NCI-H226 cells; conditions: NCI-H226, 10 μM, 48 hours; control group 65.31 ± 3.19
Description: as §1
This example was a scratch assay to evaluate the inhibitory effect of the polypeptide or derivative thereof (N1-N54) on the migration ability of human lung squamous carcinoma cells (NCI-H226). The experimental method was as described in Example 2.

Row | Substance | Migration rate (%) (mean ± SD, P) [1] | Migration rate (%) (mean ± SD, P) [2] | Migration rate (%) (mean ± SD, P) [3] | Number of cells (mean ± SD, P), migrated cells [4] | Number of cells (mean ± SD, P), migrated cells [5] | Migration rate (%) (mean ± SD, P) [6] | Migration rate (%) (mean ± SD, P) [7] | Migration rate (%) (mean ± SD, P) [8] | Migration rate (%) (mean ± SD, P) [9] | Migration rate (%) (mean ± SD, P) [10] | Migration rate (%) (mean ± SD, P) [11]
1 | N1: polypeptide with the amino acid sequence set forth in SEQ ID NO: 1 (YRVRFLAKENVTQDAEDN) | 21.83 ± 3.73,* % | 27.31 ± 4.35,** % | 18.26 ± 8.77,** % | 87 ± 10,**** | 245 ± 27,* | 7.26 ± 3.36,** % | 10.27 ± 3.64,*** % | 7.45 ± 2.78,*** % | 18.89 ± 6.68,*** % | 5.68 ± 2.86,*** % | 12.68 ± 9.07,*** %
2 | N2: SEQ ID NO: 1 with deletion of one amino acid (position 18) at the carboxyl terminal (YRVRFLAKENVTQDAED) | 20.92 ± 2.16,* % | 36.44 ± 4.16,** % | 47.79 ± 3.12,** % | 104 ± 10,**** | 221 ± 35,** | 6.48 ± 2.97,** % | 23.42 ± 6.12,** % | 22.88 ± 5.43,** % | 32.74 ± 4.26,** % | 10.71 ± 2.30,** % | 12.42 ± 8.44,*** %
3 | N3: SEQ ID NO: 1 with deletion of position 18 and PEG modification at the amino terminal ({PEG}-YRVRFLAKENVTQDAED; reading uncertain) | 21.98 ± 2.74,* % | 30.19 ± 5.91,** % | 51.86 ± 2.15,** % | 112 ± 10,**** | 224 ± 28,** | 6.15 ± 4.65,** % | 22.06 ± 4.59,** % | 3.51 ± 1.34,*** % | 29.67 ± 5.64,*** % | 12.97 ± 3.58,** % | 16.38 ± 6.85,*** %
4 | N4: SEQ ID NO: 1 with deletion of positions 15-18 and positions 1-3 (RFLAKENVTQD) | 21.44 ± 2.59,* % | 31.65 ± 3.82,** % | 51.53 ± 3.72,* % | 357 ± 21,*** | 268 ± 20,* | 13.44 ± 3.24,* % | 25.48 ± 2.79,** % | 11.34 ± 2.73,*** % | 19.04 ± 8.54,*** % | 14.32 ± 2.67,** % | 10.00 ± 10.27,** %
5 | N5: SEQ ID NO: 1 with addition of one amino acid at the carboxyl terminal and deletion of positions 1-3 (RFLAKENVTQDAEDNC) | 22.13 ± 3.22,* % | 28.27 ± 5.00,** % | 46.66 ± 5.92,** % | 167 ± 12,**** | 234 ± 27,* | 10.37 ± 3.53,* % | 12.75 ± 2.82,*** % | 4.71 ± 1.90,*** % | 21.63 ± 6.16,*** % | 9.07 ± 2.08,*** % | 10.65 ± 9.94,*** %
6 | N6: SEQ ID NO: 1 with deletion of four amino acids at the carboxyl terminal (positions 15-18) (YRVRFLAKENVTQD) | 17.42 ± 4.98,* % | 39.20 ± 4.24,** % | 40.67 ± 3.66,** % | 157 ± 13,**** | 144 ± 12,*** | 12.31 ± 2.85,* % | 18.13 ± 2.68,** % | 3.24 ± 1.80,*** % | 36.66 ± 5.57,** % | 11.34 ± 2.04,** % | 19.72 ± 8.97,** %

Reference: patent US20220280594A1, “APPLICATION OF POLYPEPTIDE OR DERIVATIVE THEREOF” (CHENGDU HUITAI BIOMEDICINE CO., LTD., priority 2019, published 2022)
